Calls of active or inactive are those of the source. The rule behind the calls is not given here.
Assays:
Format in all cases: cell-based
[1] = tested on: Hepatocyte; test: Transport through CNT3 in rat hepatocytes by oil filtration assay in presence of sodium ions in Kreb-henseleit buffer containing 100 uM NBMPR and thymidine
[2] = biological target: T1, Equilibrative nucleoside transporter 1 (Rattus norvegicus) (UniProt O54698); test: Transport through ENT1 in rat hepatocytes by oil filtration assay in presence of sodium ions in Kreb-henseleit buffer containing 100 uM NBMPR and 1 mM uridine; conditions: Hepatocyte
T1 sequence (whole entry): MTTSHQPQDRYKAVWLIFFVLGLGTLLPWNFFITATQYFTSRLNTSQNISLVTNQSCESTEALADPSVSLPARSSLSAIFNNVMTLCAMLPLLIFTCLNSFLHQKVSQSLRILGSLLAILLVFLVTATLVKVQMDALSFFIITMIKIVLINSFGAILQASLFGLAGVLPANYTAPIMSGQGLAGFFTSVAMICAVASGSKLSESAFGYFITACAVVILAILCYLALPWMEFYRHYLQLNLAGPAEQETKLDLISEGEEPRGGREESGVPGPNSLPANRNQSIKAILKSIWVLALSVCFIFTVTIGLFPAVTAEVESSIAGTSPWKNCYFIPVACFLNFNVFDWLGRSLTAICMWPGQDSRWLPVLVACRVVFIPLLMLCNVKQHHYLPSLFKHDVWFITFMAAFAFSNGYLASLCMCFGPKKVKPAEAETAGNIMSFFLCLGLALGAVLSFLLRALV

[3] = biological target: T2, Equilibrative nucleoside transporter 2 (Rattus norvegicus) (UniProt O54699); test: Transport through ENT2 in rat hepatocytes by oil filtration assay in presence of sodium ions in Kreb-henseleit buffer containing 100 uM NBMPR; conditions: Hepatocyte
T2 sequence (whole entry): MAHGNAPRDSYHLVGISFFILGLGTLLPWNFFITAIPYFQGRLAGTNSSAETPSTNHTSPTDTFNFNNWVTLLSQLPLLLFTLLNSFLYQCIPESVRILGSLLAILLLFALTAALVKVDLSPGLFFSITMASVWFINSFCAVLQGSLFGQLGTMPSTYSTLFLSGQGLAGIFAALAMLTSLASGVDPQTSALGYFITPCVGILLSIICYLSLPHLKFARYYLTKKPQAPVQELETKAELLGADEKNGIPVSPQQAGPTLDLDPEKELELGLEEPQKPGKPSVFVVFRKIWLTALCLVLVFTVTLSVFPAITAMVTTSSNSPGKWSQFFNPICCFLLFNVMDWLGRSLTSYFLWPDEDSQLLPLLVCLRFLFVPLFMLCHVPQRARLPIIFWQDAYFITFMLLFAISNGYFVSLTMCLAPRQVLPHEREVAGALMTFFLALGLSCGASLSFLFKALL

[4] = tested on: Hepatocyte; test: Transport through CNT3 in rat hepatocytes by oil filtration assay
[5] = biological target: T2, Equilibrative nucleoside transporter 2 (Rattus norvegicus); test: Transport through ENT2 in rat hepatocytes by oil filtration assay; conditions: Hepatocyte
[6] = biological target: T3, Sodium/nucleoside cotransporter 1 (Rattus norvegicus) (UniProt Q62674); test: Transport through CNT1 in rat hepatocytes by oil filtration assay; conditions: Hepatocyte
T3 sequence (whole entry): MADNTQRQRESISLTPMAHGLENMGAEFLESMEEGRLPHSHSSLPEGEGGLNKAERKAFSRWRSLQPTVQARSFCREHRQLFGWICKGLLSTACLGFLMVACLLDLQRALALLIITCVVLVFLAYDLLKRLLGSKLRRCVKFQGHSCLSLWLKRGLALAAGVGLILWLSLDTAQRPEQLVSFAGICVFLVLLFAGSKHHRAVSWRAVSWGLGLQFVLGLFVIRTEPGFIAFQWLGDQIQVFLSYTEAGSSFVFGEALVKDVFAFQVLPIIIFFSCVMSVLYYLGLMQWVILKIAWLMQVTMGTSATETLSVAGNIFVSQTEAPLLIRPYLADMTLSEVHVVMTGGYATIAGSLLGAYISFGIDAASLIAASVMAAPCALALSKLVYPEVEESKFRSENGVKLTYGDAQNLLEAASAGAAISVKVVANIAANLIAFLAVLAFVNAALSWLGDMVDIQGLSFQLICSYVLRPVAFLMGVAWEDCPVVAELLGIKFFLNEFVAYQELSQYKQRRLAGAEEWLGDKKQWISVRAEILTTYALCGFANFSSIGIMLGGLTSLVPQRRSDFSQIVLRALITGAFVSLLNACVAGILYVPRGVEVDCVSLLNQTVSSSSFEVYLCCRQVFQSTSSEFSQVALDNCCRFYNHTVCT

[7] = biological target: T3, Sodium/nucleoside cotransporter 1 (Rattus norvegicus); test: Transport through CNT1 in rat hepatocytes by oil filtration assay in presence of sodium ions in Kreb-henseleit buffer containing 100 uM NBMPR and 1 mM uridine; conditions: Hepatocyte
[8] = tested on: Hepatocyte; test: Transport through CNT3 in mouse hepatocytes by oil filtration assay in presence of sodium ions in Kreb-henseleit buffer
[9] = biological target: T4, Equilibrative nucleoside transporter 1 (Mus musculus) (UniProt Q9JIM1); test: Transport through ENT1 in mouse hepatocytes by oil filtration assay in presence of sodium ions in Kreb-henseleit buffer; conditions: Hepatocyte
T4 sequence (whole entry): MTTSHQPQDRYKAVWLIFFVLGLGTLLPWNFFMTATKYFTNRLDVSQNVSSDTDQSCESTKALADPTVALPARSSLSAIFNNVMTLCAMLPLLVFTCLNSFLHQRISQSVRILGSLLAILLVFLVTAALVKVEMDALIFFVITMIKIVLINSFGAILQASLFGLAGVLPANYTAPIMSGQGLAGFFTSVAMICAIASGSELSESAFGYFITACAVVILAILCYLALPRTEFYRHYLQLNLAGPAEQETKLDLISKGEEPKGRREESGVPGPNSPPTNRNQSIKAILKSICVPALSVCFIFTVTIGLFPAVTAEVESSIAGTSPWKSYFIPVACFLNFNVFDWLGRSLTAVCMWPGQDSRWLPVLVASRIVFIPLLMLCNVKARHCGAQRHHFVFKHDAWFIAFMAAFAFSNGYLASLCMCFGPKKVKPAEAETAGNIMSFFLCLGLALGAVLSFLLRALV

For NC(=O)c1ncn([C@@H]2O[C@H](CO)[C@@H](O)[C@H]2O)n1, the Activity [1] was “inactive”, the Activity [2] was “inactive” and the Activity [3] was “Active”. For the same molecule, the Activity [4] was “Active”, the Activity [5] was “Active” and the Activity [6] was “Active”. The Activity [7] was “inactive”, the Activity [8] was “inactive” and the Activity [9] was “inactive”.
In the case of Nc1ncnc2c1ncn2[C@@H]1O[C@H](CO)[C@@H](O)[C@H]1O, the Activity [1] is reported as “inactive”, the Activity [2] is reported as “inactive” and the Activity [3] is reported as “Active”. For the same molecule, the Activity [4] was “inactive”, the Activity [5] was “inactive” and the Activity [6] was “inactive”. The Activity [7] was “inactive”, the Activity [8] was “inactive” and the Activity [9] was “inactive”.

Source: ChEMBL document CHEMBL1275601, “Striking species difference in the contribution of concentrative nucleoside transporter 2 to nucleoside uptake between mouse and rat hepatocytes” (Antimicrob Agents Chemother, 2010)
